Test results reported in patent US8415469B2, “Compounds and methods for kinase modulation, and indications therefor” (Plexxikon Inc., priority 2005, dated 2013).

What was measured:
Format in all cases: biochemical
B-Raf = molecular target: T1, B-Raf (Homo sapiens, UniProt P15056); experiment: AlphaScreen kinase assay, B-Raf; details: read-out: IC50, activity toward kinase B-Raf
T1 construct: purchased Upstate Biotechnology

B-Raf V600E = molecular target: T2, B-Raf V600E (Homo sapiens, UniProt P15056, V600E); experiment: AlphaScreen kinase assay, B-Raf V600E; details: read-out: IC50, activity toward kinase B-Raf V600E
T2 construct: P4254. pFastBacBD-CDC37 BRAF D437-K722-X, V600E; His6 with pFastBac HT leader (TEV site) (N); made in house; host or cells: Sf9 (baculovirus; chaperone CDC37 co-expressed)

Btk = molecular target: T3, Btk (Homo sapiens, UniProt Q06187); experiment: Z'-Lyte FRET kinase assay (Invitrogen), Btk; details: read-out: IC50, activity toward kinase Btk
T3 construct: purchased Invitrogen (assay run by Invitrogen)

FGFR1 = molecular target: T4, FGFR1 (Homo sapiens, UniProt P11362, C488A/C584S); experiment: AlphaScreen kinase assay, FGFR1; details: read-out: IC50, activity toward kinase FGFR
T4 construct: P1351.pET N6 BI-PTP FGFR A458-E765-X C488A, C584S; made in house; host or cells: E. coli (PTP1B co-expressed)

Fms = molecular target: T5, Fms (Homo sapiens, UniProt P07333); experiment: AlphaScreen kinase assay, Fms; details: read-out: IC50, activity toward kinase Fms
T5 construct: purchased Upstate Biotechnology

Kdr = molecular target: T6, Kdr (Homo sapiens, UniProt P35968); experiment: Z'-Lyte FRET kinase assay (Invitrogen), Kdr; details: read-out: IC50, activity toward kinase Kdr
T6 construct: purchased Invitrogen (assay run by Invitrogen)

Kit = molecular target: T7, Kit (Homo sapiens, UniProt P10721); experiment: AlphaScreen kinase assay, Kit; details: read-out: IC50, activity toward kinase Kit
T7 construct: P1332.N6 BI PTP KIT M552-K948-X COD; His6 (N); made in house; host or cells: E. coli (PTP1B co-expressed)
From the text: AlphaScreen assay was used to screen additional kinases. The assay is similarly dependent on the phosphorylation of a peptide substrate. In this assay, an antibody that recognizes phosphorylated substrate is bound to an acceptor bead. The peptide substrate is attached to biotin, which binds to a donor head that contains streptavidin. Thus phosphorylated substrate is bound by antibody and streptavidin, bringing the donor and acceptor heads into close proximity when kinase is not inhibited. The donor produces singlet oxygen which results in emission from the acceptor when they are in close proximity. Conversely, when kinase is inhibited, the donor and acceptor beads are not associated and the emission from the acceptor is reduced.
AlphaScreen assays were done using compounds dissolved in DMSO to a concentration of 20 mM. The compounds were diluted accordingly to the desired final concentrations in each sample well, using 1:3 serial dilution for a total of 8 concentration points. Plates were prepared such that each kinase reaction is 20 μl in 1× kinase buffer, 5% DMSO and 10 μM ATP. After incubation of the kinase reaction for 1 hour at room temperature, 5 μl of donor beads in stop buffer (50 mM EDTA in 1× kinase buffer) was added, the sample was mixed and incubated for 20 minutes at room temperature before adding 5 μl of acceptor beads in stop buffer. The samples were incubated for 60 minutes at room temperature and the signal per well was read on AlphaQuest reader.

Ret = molecular target: T8, Ret (Homo sapiens, UniProt P07949); experiment: AlphaScreen kinase assay, Ret; details: read-out: IC50, activity toward kinase Ret
T8 construct: P1378.pET-SF BI-PTP RET H661-R1012 HIS; made in house
T8 sequence (P07949 with tags, fused parts or gaps): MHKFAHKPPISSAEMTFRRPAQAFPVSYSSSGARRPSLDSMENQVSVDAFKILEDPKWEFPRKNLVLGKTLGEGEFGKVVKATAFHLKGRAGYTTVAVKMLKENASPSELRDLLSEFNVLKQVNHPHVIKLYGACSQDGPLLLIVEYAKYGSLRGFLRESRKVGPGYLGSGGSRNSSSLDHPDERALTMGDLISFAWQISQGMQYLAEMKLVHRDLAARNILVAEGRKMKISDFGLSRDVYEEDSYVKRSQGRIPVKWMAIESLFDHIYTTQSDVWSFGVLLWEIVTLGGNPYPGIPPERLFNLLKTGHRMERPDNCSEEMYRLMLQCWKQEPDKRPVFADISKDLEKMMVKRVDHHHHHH

Yes = molecular target: T9, Yes (Homo sapiens, UniProt P07947); experiment: Z'-Lyte FRET kinase assay (Invitrogen), Yes; details: read-out: IC50, activity toward kinase Yes
T9 construct: purchased Invitrogen (Carlsbad, Calif.), screening service
How it was run: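 Z′-Lyte FRET assay: kinase phosphorylates 2 μM peptide substrate at 10 μM ATP in 50 mM HEPES pH 7.5, 50 mM MgCl2, 5 mM EGTA, 0.05% BRIJ-35, 1% DMSO, 1 h at room temperature. Protease development 1 h; coumarin/fluorescein emission ratio gives phosphorylation extent over compound concentration curves.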

Measured: IC50

T5 sequence (P07333 20-972): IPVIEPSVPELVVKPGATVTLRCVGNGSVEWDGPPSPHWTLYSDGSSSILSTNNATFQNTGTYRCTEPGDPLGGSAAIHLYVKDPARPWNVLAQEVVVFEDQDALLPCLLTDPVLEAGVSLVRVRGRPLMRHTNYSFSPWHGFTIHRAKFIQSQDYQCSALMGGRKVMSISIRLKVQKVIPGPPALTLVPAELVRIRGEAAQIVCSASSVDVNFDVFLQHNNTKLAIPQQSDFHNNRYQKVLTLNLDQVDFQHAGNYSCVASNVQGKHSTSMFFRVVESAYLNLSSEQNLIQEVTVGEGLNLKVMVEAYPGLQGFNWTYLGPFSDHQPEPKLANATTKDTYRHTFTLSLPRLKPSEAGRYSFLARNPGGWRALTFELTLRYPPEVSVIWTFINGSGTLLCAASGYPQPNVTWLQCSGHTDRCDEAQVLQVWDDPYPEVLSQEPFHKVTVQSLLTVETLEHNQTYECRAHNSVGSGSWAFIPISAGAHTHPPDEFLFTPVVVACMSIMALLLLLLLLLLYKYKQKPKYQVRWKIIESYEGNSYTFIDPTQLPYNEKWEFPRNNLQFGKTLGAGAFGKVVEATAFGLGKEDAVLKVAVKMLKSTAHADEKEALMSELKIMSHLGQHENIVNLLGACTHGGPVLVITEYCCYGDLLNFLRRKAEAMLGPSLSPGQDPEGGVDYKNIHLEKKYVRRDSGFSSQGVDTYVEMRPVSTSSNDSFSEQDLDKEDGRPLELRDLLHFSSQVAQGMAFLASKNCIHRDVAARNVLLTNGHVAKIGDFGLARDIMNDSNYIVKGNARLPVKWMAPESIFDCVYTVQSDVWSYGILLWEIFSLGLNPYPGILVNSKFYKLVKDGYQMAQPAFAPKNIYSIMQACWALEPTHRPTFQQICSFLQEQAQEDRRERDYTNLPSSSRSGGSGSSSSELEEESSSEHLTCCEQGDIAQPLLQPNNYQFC
T9 sequence (P07947 whole entry): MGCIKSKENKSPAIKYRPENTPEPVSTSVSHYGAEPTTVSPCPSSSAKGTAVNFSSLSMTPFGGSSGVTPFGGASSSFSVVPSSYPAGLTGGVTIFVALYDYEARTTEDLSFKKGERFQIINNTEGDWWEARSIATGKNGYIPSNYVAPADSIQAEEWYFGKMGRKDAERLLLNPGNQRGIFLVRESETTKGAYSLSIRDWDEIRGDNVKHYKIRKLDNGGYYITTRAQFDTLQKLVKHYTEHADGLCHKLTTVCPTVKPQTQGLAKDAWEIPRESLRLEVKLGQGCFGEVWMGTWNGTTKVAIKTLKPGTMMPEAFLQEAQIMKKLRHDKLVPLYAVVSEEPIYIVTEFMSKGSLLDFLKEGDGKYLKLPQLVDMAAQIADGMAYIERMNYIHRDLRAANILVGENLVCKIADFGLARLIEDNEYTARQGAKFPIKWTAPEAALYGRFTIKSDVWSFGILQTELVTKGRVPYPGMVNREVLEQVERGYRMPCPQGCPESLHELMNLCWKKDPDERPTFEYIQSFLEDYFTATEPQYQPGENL
T7 sequence (P10721 with tags, fused parts or gaps): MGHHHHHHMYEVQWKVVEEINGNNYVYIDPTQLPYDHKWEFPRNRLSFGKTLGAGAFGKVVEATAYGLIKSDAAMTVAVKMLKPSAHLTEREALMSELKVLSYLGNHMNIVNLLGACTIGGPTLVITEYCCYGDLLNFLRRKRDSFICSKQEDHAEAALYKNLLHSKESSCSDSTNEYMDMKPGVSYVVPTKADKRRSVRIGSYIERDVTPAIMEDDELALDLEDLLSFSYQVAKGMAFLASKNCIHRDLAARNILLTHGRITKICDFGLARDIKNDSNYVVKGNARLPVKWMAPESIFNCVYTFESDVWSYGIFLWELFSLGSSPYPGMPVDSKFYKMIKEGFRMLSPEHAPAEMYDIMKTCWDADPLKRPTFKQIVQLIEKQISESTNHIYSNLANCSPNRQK
T3 sequence (Q06187 whole entry): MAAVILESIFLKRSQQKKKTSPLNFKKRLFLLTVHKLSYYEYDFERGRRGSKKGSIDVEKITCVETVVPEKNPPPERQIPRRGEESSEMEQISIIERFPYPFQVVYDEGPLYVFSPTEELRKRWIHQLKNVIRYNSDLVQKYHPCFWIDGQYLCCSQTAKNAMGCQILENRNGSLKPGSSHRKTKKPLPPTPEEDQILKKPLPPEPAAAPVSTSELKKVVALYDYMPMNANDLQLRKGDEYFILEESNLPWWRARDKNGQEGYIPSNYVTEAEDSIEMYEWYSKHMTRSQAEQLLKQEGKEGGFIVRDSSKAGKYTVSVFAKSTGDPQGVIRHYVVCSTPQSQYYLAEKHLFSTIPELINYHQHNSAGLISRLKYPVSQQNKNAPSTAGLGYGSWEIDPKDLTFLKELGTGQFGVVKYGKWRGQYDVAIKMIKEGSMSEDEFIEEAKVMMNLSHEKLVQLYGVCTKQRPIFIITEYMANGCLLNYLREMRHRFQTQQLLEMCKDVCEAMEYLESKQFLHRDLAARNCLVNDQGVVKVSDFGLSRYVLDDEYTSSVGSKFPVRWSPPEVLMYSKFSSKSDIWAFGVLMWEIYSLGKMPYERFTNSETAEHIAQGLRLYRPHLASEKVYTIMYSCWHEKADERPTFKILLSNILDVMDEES
T1 sequence (P15056 whole entry): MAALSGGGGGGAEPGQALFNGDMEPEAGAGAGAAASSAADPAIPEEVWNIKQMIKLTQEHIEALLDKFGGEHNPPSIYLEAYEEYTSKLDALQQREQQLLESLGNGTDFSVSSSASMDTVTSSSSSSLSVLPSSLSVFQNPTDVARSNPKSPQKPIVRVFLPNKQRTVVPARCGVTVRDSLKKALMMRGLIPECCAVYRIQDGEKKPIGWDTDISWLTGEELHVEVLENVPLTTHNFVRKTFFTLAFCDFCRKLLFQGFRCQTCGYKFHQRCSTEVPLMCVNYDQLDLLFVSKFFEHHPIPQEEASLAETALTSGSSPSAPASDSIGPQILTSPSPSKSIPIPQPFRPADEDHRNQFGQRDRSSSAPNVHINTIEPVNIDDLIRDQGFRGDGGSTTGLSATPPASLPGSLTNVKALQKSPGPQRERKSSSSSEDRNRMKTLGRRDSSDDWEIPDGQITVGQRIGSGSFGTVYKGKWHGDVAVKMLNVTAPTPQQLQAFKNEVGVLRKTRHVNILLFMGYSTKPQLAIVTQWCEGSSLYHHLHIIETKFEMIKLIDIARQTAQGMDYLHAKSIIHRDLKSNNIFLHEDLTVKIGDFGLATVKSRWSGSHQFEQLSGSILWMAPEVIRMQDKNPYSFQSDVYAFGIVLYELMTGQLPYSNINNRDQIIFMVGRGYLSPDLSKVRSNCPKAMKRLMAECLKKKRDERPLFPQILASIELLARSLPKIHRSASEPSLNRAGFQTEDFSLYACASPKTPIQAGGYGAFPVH
T4 sequence (P11362 458-765 C488A/C584S): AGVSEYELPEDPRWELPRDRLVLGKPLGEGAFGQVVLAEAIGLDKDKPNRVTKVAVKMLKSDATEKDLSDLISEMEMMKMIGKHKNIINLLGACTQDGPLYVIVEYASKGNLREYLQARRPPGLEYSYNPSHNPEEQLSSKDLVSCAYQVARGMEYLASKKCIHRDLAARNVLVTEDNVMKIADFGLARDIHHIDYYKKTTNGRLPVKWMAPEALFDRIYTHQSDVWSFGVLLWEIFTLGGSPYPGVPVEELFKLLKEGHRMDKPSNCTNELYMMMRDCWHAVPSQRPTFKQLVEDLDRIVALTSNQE
T2 sequence (P15056 with tags, fused parts or gaps V600E): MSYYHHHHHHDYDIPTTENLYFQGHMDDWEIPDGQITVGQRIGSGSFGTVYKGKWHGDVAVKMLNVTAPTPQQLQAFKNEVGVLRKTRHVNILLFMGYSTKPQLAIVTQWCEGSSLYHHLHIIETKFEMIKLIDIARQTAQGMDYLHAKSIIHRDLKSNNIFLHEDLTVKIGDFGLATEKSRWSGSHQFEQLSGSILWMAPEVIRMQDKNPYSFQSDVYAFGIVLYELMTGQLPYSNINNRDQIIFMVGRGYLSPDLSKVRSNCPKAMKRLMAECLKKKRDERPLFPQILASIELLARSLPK

O=C(c1cccc(O)c1)c1c[nH]c2ncc(Br)cc12 [Compound P-0019]
≤ 10 µM: all assays above

O=C(c1cccc(O)c1)c1c[nH]c2nccc(Cl)c12 [Compound P-0012]
not listed: B-Raf
≤ 10 µM: all other assays above

NC(=O)c1ccc(-c2ccnc3[nH]cc(C(=O)c4cc(F)ccc4F)c23)cc1 [Compound P-0013]
not listed: B-Raf | Fms
≤ 10 µM: all other assays above

O=C(c1cc(O)ccc1F)c1c[nH]c2ncc(-c3ccccc3)cc12 [Compound P-0045]
not listed: Kit
≤ 10 µM: all other assays above

Oc1cccc(Cc2c[nH]c3ncc(-c4cccs4)cc23)c1F [Compound P-0052, 2-Fluoro-3-(5-thiophen-2-yl-1H-pyrrolo[2,3-b]pyridin-3-ylmethyl)-phenol]
not listed: Fms | Kit
≤ 10 µM: all other assays above

Cc1c(O)cccc1C(=O)c1c[nH]c2ncc(-c3ccccc3)cc12 [Compound P-0016, (3-Hydroxy-2-methyl-phenyl)-(5-phenyl-1H-pyrrolo[2,3b]pyridin-3-yl)-methanone]
≤ 10 µM: all assays above

Cc1c(NS(C)(=O)=O)cccc1C(=O)c1c[nH]c2ncc(-c3ccccc3)cc12 [Compound P-0082, N-[2-Methyl-3-(5-phenyl-1H-pyrrolo[2,3-b]pyridine-3-carbonyl)-phenyl]-methanesulfonamide]
≤ 10 µM: all assays above

O=C(c1cc(O)ccc1F)c1c[nH]c2ncccc12 [Compound P-0005]
≤ 10 µM: all assays above

Cc1c(O)cccc1C(=O)c1c[nH]c2ncc(Br)cc12 [Compound P-0055, (5-Bromo-1H-pyrrolo[2,3-b]pyridin-3-yl)-(3-hydroxy-2-methyl-phenyl)-methanone]
not listed: Fms | Kit
≤ 10 µM: all other assays above

Cc1ccccc1C(=O)c1c[nH]c2nccc(-c3ccc(C(N)=O)cc3)c12 [Compound P-0017]
not listed: B-Raf | Fms
≤ 10 µM: all other assays above

Cc1ccc(F)cc1C(=O)c1c[nH]c2ncc(-c3cccc(N)c3)cc12 [Compound P-0040]
not listed: B-Raf | Fms
≤ 10 µM: all other assays above

O=C(c1cccc(O)c1)c1c[nH]c2ncccc12 [Compound P-0011]
not listed: B-Raf | Fms
≤ 10 µM: all other assays above

Nc1ccnc2[nH]cc(C(=O)c3ccccc3)c12 [Compound P-0029]
not listed: B-Raf | B-Raf V600E | Fms
≤ 10 µM: all other assays above

CS(=O)(=O)c1cccc(-c2cnc3[nH]cc(C(O)c4c(F)ccc(F)c4F)c3c2)c1 (centres unmarked) [Compound P-0020]
not listed: B-Raf | B-Raf V600E
≤ 10 µM: all other assays above

O=C(c1ccc(O)cc1)c1c[nH]c2ncc(-c3cccs3)cc12 [Compound P-0024, (4-Hydroxy-phenyl)-(5-thiophen-2-yl-1H-pyrrolo[2,3-b]pyridin-3-yl)-methanone]
not listed: Fms
≤ 10 µM: all other assays above

Cc1ccc(F)cc1C(=O)c1c[nH]c2ncc(-c3ccc(C(N)=O)cc3)cc12 [Compound P-0050]
not listed: Fms
≤ 10 µM: all other assays above

O=C(c1cccc(O)c1)c1c[nH]c2ncc(-c3cccnc3)cc12 [Compound P-0048]
not listed: B-Raf | FGFR1 | Kit
≤ 10 µM: all other assays above

O=C(c1cccc(O)c1F)c1c[nH]c2ncc(-c3cccnc3)cc12 [Compound P-0027, (2-Fluoro-3-hydroxy-phenyl)-(5-pyridin-3-yl-1H-pyrrolo[2,3-b]pyridin-3-yl)-methanone]
≤ 10 µM: all assays above

CS(=O)(=O)c1cccc(-c2cnc3[nH]cc(C(=O)c4c(F)ccc(F)c4F)c3c2)c1 [Compound P-0102, [5-(3-Methanesulfonyl-phenyl)-1H-pyrrolo[2,3-b]pyridin-3-yl]-(2,3,6-trifluoro-phenyl)-methanone]
≤ 10 µM: all assays above

Cc1ccc(F)cc1C(=O)c1c[nH]c2ncc(-c3cccc(NS(C)(=O)=O)c3)cc12 [Compound P-0028]
not listed: B-Raf | Fms
≤ 10 µM: all other assays above

O=C(c1ccccc1F)c1c[nH]c2ncc(-c3ccsc3)cc12 [Compound P-0134]
not listed: B-Raf
≤ 10 µM: all other assays above

O=C(O)/C=C/c1cccc(-c2cnc3[nH]cc(C(=O)c4ccccc4F)c3c2)c1 [Compound P-0033]
not listed: B-Raf
≤ 10 µM: all other assays above

COc1ccc(C(=O)c2c[nH]c3ncc(-c4cccc(/C=C/C(=O)O)c4)cc23)c(Cl)c1 [Compound P-0015]
not listed: B-Raf | Fms | Kit
≤ 10 µM: all other assays above

CS(=O)(=O)Nc1cccc(-c2ccnc3[nH]cc(C(=O)c4cc(F)ccc4F)c23)c1 [Compound P-0060]
not listed: FGFR1 | Fms | Kit
≤ 10 µM: all other assays above
